Laboratory results from the NIST ThermoML archive (doi:10.1016/j.jct.2009.02.007).

Tests used:
[1] = xn = mol fraction of the nth substance listed; conditions: 101 kPa, Liquid, Vibrating tube method
[2] = 101.33 kPa, Liquid, Vibrating tube method

O=Cc1ccccc1 [benzaldehyde] + CCCCn1cc[n+](C)c1.F[B-](F)(F)F
mass density [kg/m3], [1]
Conditions	x2 = 0.1001	x2 = 0.1998	x2 = 0.2997	x2 = 0.4	x2 = 0.4999	x2 = 0.5998	x2 = 0.6999	x2 = 0.7971	x2 = 0.8991
298.15 K	1078.64	1105.45	1127.3	1145.56	1160.76	1173.77	1184.7	1193.8	1202.44
303.15 K	1072.78	1098.6	1119.46	1136.76	1151.14	1163.4	1173.86	1182.59	1190.51
308.15 K	1068.6	1094.81	1116.11	1133.67	1148.32	1160.74	1171.52	1180.59	1188.53
313.15 K	1064.7	1090.93	1112.3	1129.92	1144.5	1156.92	1167.64	1176.6	1184.48

CCCCn1cc[n+](C)c1.F[B-](F)(F)F [1-butyl-3-methylimidazolium tetrafluoroborate]
[2]
Conditions	mass density [kg/m3]
298.15 K	1211.03
303.15 K	1197.45
308.15 K	1194.6
313.15 K	1190.44

O=Cc1ccccc1 [benzaldehyde]
[2]
Conditions	mass density [kg/m3]
298.15 K	1044.2
303.15 K	1040.21
308.15 K	1036.15
313.15 K	1032.15
